Earlier results as cited in patent US20090215859A1, “Compositions and methods for modulating dhr96” (priority 2004, published 2009).

Tests used:
[1] = molecular target: T1, PXR (Homo sapiens, UniProt O75469); conditions: cited from earlier work
T1 sequence (O75469 1-434): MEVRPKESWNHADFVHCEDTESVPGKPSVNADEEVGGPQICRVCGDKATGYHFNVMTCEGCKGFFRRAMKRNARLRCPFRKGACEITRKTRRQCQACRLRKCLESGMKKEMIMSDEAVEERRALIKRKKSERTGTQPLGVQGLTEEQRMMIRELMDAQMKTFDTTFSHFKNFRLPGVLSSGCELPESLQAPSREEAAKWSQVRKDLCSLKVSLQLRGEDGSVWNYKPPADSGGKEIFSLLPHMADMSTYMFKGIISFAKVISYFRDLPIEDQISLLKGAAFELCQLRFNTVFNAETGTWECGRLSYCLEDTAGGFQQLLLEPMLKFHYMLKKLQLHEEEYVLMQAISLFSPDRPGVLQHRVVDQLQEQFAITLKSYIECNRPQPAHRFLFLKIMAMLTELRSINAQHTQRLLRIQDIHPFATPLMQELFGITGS

[2] = molecular target: T2, GAL4-USP fusion protein (Drosophila melanogaster, UniProt P20153+P34021); conditions: dependent on its EcR partner; cited from earlier work
T2 construct: host or cells: tissues dissected from transgenic Drosophila larvae
T2 sequence (P20153 239-498 limits assumed): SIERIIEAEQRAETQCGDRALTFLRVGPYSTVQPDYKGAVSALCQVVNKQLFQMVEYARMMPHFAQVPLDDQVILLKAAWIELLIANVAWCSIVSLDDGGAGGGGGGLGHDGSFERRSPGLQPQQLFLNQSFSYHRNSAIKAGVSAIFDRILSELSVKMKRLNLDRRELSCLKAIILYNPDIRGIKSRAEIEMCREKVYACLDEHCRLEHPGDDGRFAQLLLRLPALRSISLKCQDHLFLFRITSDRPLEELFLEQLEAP
T2 sequence (P34021 1-878): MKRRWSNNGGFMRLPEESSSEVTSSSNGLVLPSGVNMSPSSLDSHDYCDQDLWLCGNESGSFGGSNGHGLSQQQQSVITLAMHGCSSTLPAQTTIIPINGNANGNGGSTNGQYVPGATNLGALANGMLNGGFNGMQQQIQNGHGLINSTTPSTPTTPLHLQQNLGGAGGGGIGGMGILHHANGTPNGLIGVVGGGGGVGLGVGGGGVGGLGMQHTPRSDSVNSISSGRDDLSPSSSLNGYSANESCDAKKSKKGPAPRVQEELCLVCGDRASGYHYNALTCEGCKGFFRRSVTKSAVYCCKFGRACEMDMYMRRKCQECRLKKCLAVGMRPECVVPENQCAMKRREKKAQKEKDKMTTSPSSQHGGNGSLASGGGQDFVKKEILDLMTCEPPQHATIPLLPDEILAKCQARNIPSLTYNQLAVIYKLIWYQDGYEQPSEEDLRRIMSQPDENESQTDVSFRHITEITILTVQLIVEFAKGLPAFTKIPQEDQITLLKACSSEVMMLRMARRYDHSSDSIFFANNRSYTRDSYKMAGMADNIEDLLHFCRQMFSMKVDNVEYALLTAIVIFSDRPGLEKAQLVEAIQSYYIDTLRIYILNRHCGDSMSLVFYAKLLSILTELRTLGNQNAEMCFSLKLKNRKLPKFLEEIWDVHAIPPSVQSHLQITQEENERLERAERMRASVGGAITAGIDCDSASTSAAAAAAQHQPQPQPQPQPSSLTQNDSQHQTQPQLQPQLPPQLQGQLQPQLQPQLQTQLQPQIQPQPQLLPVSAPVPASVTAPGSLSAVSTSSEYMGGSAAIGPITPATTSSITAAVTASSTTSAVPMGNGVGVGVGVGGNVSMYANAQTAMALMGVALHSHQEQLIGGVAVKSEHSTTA

[3] = system: DHR38; conditions: cultured larval organs; cited from earlier work

Row | Structure (SMILES) | Action on PXR [1] | Activation of the GAL4-USP fusion protein [2] | Activation of DHR38 in the GAL4-LBD system [3]
1 | COc1cc2c(cc1O)CCN[C@]21CS[C@@H]2c3c(OC(C)=O)c(C)c4c(c3[C@H](COC1=O)N1[C@@H]2[C@H]2c3c(cc(C)c(OC)c3O)C[C@@H]([C@@H]1O)N2C)OCO4 [ecteinascidin-743] | antagonist |  | 
2 | CC(C)(O)CC[C@@H](O)[C@](C)(O)[C@H]1CC[C@@]2(O)C3=CC(=O)[C@@H]4C[C@@H](O)[C@@H](O)C[C@]4(C)[C@H]3CC[C@]12C [20-hydroxyecdysone] |  | potent activator | not
